# In PMC6934184, “Selective DNA-PKcs inhibition extends the therapeutic index of localized radiotherapy and chemotherapy” (The Journal of Clinical Investigation, 2019):
# Molecular target: T1, MATK (HYL) (Homo sapiens, UniProt P42679)
# T1 construct: purchased Thermo Fisher Scientific (Life Technologies) SelectScreen
# Assay: SelectScreen Z'LYTE
# Assay type: biochemical
# Summary of the method: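 SelectScreen broad panel; activity (Z'LYTE, Adapta) plus binding formats. ATP: Km app for CSF1R Z'LYTE; 10 for CAMK1 Adapta. Readout = % per kinase.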
# T1 sequence (P42679 whole entry): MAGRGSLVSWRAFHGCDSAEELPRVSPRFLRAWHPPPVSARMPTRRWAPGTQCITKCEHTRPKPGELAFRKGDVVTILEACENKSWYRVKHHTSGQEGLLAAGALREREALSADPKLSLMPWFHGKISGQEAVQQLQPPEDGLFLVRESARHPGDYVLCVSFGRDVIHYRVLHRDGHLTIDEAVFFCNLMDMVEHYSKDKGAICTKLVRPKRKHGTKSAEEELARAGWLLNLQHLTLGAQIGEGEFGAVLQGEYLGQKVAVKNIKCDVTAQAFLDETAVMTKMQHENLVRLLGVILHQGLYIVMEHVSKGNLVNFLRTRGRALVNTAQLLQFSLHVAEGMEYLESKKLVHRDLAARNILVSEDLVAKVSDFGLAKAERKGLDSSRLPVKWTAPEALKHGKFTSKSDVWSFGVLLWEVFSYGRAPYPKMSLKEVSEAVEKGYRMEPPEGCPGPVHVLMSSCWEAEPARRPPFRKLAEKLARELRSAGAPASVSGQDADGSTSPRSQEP
compound,measurement,value
CN(C(=O)CN1CCOCC1)c1ccc2sc3c(-c4cccc5c(=O)cc(N6CC7CCC(C6)O7)oc45)cccc3c2c1 [NU5455],inhibition at 1 µM,-6.3%
